From ChEMBL document CHEMBL5126522, “In vitro and in vivo evaluation of 211At-labeled fibroblast activation protein inhibitor for glioma treatment” (Bioorg Med Chem, 2022)
Active and inactive are the calls of the source.

Tests used:
U-87MG ATCC [1] = test: Antitumor activity against human U-87 MG cells xenografted in BALB/c nude mouse assessed as reduction in Ki67 expression in tumor at 0.55 MBq, it measured after 12 days by immunohistochemical analysis; assay type: functional, cell-based; settings: time 12.0 day, tested as the 211At-labelled form
U-87MG ATCC [2] = test: Cytotoxicity against human U-87 MG cells assessed as reduction in cell viability incubated in radioactive medium for 12 hrs followed by incubation in non-radioactive medium for 24 hrs by CCK8 assay; assay type: functional, cell-based; settings: dose 12-92 kBq, time 36.0 hrs, tested as the 211At-labelled form, DDE = dose-dependent effect
U-87MG ATCC [3] = test: Inhibition of colony formation in human U-87 MG cells incubated in radioactive medium for 12 hrs followed by incubation in non-radioactive medium for 14 days by crystal violet staining based analysis; assay type: functional, cell-based; settings: dose 4.6-18.5 kBq, time 852.0 hrs, tested as the 211At-labelled form, DDE = dose-dependent effect
U-87MG ATCC [4] = test: Induction of cell cycle arrest in human U-87 MG cells assessed as increase in proportion of cells at S phase at 185 kBq incubated in radioactive medium for 12 hrs followed by incubation in non-radioactive medium for 24 hrs by PI staining based flow cytometry; assay type: functional; settings: time 36.0 hrs, tested as the 211At-labelled form
U-87MG ATCC [5] = test: Induction of apoptosis in human U-87 MG cells assessed as fragmented and condensed chromatin at 18.5 to 185 kBq measured after 24 hrs by DAPI staining based confocal microscopy; assay type: functional, cell-based; settings: dose 18.5-185 kBq, tested as the 211At-labelled form
U-87MG ATCC [6] = test: Anti-tumor activity against human U-87 MG cells xenografted in BALB/c nude mouse assessed as reduction in tumor growth administered IT measured every 3 days by electronic caliper analysis; assay type: functional; settings: dose 0.18-0.55 MBq, DDE = dose-dependent effect, tested as the 211At-labelled form

N#C[C@@H]1CC(F)(F)CN1C(=O)CNC(=O)c1ccnc2ccc(OCCCN3CCN(C(=O)c4ccc([At])cc4)CC3)cc12
active: Activity (U-87MG ATCC [1]) | Activity (U-87MG ATCC [2]) Dde | inhibition (U-87MG ATCC [3]) Dde | Activity (U-87MG ATCC [4]) | Activity (U-87MG ATCC [5]) | Activity (U-87MG ATCC [6]) Dde
